Laboratory results published in patent US20090018162A1, “USE OF 6-(3-CHLORO-2-FLUOROBENZYL)-1-[(2S)-1-HYDROXY-3-METHYLBUTAN-2-YL]-7-METHOXY-4-OXO-1,4-DIHYDROQUINOLINE-3-CARBOXYLIC ACID OR SALT THEREOF FOR TREATING RETROVIRUS INFECTION” (priority 2006, published 2009).
Structures can show the parent of a compound that is named as a salt. Where two headings read alike, the source gives them in different places.

How the values were obtained:
[1] = system: HIV-1 macrophage-tropic virus strains; test: microbe, parasite or virus in culture; conditions: in Homo sapiens
[2] = system: human monocytes/macrophages; test: MTS cytotoxicity in monocyte/macrophage cultures; format: cell-based; conditions: 7 days
Experimental: (§1) Anti-HIV Efficacy Evaluation in Fresh Human Monocyte/Macrophage. Monocytes/macrophages were allowed to adhere to the interior 60 wells of a 96 well flat bottomed plate for 2 to 18 hours at 37° C., 5% CO2. Following 6 to 14 days in culture, the monocyte/macrophage cultures were washed 3 times to remove any non-adherent cells and serially diluted test compounds were added followed by the addition of a pre-titered amount of HIV. Cultures were washed a final time by media removal 24 hours post infection, fresh compound added and the cultures continued for an additional six days. […] At assay termination, virus replication was measured by collecting cell-free supernatant samples which were analyzed for HIV p24 antigen content using a commercially available p24 ELISA assay (Coulter). […] MTS staining for PBMC viability to measure cytotoxicity. […] The mitochondrial enzymes of metabolically active cells metabolize MTS to yield a soluble formazan product. This allows the rapid quantitative analysis of cell viability and compound cytotoxicity. […] At termination of the assay, 20 μL of MTS reagent was added per well. The microtiter plates were then incubated 4-6 hrs at 37° C. The incubation intervals were chosen based on empirically determined times for optimal dye reduction. […] Data analysis.

[3] = MTS cytotoxicity in monocyte/macrophage cultures; format: cell-based; conditions: human, TC50
Experimental: as §1

human PBMCs [4] = conditions: 7 days
HIV-2 CDC 310319 [5] = test: microbe, parasite or virus in culture; conditions: Human immunodeficiency virus 2, PBMC
HIV-1 clinical isolates [6] = test: microbe, parasite or virus in culture; conditions: Human immunodeficiency virus 1, PBMC
[7] = system: drug-resistant HIV-1 isolates; test: Anti-HIV efficacy in fresh human PBMCs, drug-resistant HIV-1 isolates; conditions: for IC50: Human immunodeficiency virus 1, PBMC, in Homo sapiens
HIV-1 clinical isolates [8] = system: HIV-1 clinical isolates
HIV-2 CDC 310319 [9] = conditions: HIV-2 CDC 310319 in PBMCs
human PBMCs [10] = test: MTS staining for PBMC viability (cytotoxicity); conditions: read-out: TC50, PBMCs, MTS
in vitro = conditions: human
[11] = system: HIV-1 macrophage-tropic virus strains

Compound: Cc1c(O)cccc1C(=O)N[C@@H](CSc1ccccc1)[C@H](O)CN1C[C@H]2CCCC[C@H]2C[C@H]1C(=O)NC(C)(C)C [Nelfinavir, nelfinavir mesylate]
- IC50 ([1]; Human immunodeficiency virus 1, BAL, Macrophage, HIV-1 Ba-L in macrophages): 36.3 nM
- IC50 ([1]; Human immunodeficiency virus 1, Macrophage, HIV-1 ADA in macrophages): 45.2 nM
- CC50 [2]: > 10000 nM
- CC50 at 7 days [3]: > 10000 nM
- CC50 (human PBMCs [4]): > 1000 nM
- IC50 (HIV-2 CDC 310319 [5]): 16.1 nM
- IC50 (HIV-1 clinical isolates [6]; HIV-1 96USHIPS7 (subtype /B, R5) in PBMCs): 25.8 nM
- IC50 (HIV-1 clinical isolates [6]; HIV-1 BR/92/021 (subtype B/B, R5) in PBMCs): 70.5 nM
- IC50 (HIV-1 clinical isolates [6]; HIV-1 BR/93/017 (subtype B/B, R5) in PBMCs): 2.05 nM
- IC50 (HIV-1 clinical isolates [6]; HIV-1 BR/93/020 (subtype F/F, R5/X4) in PBMCs): 16.4 nM
- IC50 (HIV-1 clinical isolates [6]; HIV-1 BR/93/022 (subtype /B, R5) in PBMCs): 20.1 nM
- IC50 (HIV-1 clinical isolates [6]; HIV-1 CMU 02 (subtype /EA, X4) in PBMCs): 22.7 nM
- IC50 (HIV-1 clinical isolates [6]; HIV-1 JV 1083 (subtype /G, R5) in PBMCs): 14 nM
- IC50 (HIV-1 clinical isolates [6]; HIV-1 RW/92/016 (subtype A/A, R5) in PBMCs): 13.4 nM
- IC50 (HIV-1 clinical isolates [6]; HIV-1 UG/92/046 (subtype D/D, X4) in PBMCs): 27.7 nM
- TI (TC50/IC50) ([7]; HIV-1 52-52 in PBMCs): >10.5
- TI (TC50/IC50) ([7]; HIV-1 144-44 in PBMCs): >6.05
- TI (TC50/IC50) ([7]; HIV-1 1064-52 in PBMCs): >1.19
- TI (TC50/IC50) ([7]; HIV-1 MDR 807 in PBMCs): >7.41
- IC50 ([7]; HIV-1 52-52 (protease-inhibitor resistant) in PBMCs): 95 nM
- IC50 ([7]; against several viruses (e.g., MDR 1385, MDR 3761) in PBMCs): > 1000 nM
- IC50 ([7]; multi-drug-resistant HIV-1 MDR 769 in PBMCs): > 1000 nM
- IC50 ([7]; multi-drug-resistant HIV-1 MDR 807 in PBMCs): 135 nM
- IC50 ([7]; multi-drug-resistant HIV-1 MDR 1385 in PBMCs): > 1000 nM
- IC50 ([7]; multi-drug-resistant HIV-1 MDR 3761 in PBMCs): > 1000 nM
- TI (TC50/IC50) (HIV-1 clinical isolates [8]; HIV-1 96USHIPS7 in PBMCs): >38.8
- TI (TC50/IC50) (HIV-1 clinical isolates [8]; HIV-1 BFC01 in PBMCs): >1010.1
- TI (TC50/IC50) (HIV-1 clinical isolates [8]; HIV-1 BR/92/021 in PBMCs): >14.2
- TI (TC50/IC50) (HIV-1 clinical isolates [8]; HIV-1 BR/92/025 in PBMCs): >9901.0
- TI (TC50/IC50) (HIV-1 clinical isolates [8]; HIV-1 BR/93/017 in PBMCs): >487.8
- TI (TC50/IC50) (HIV-1 clinical isolates [8]; HIV-1 BR/93/020 in PBMCs): >61.0
- TI (TC50/IC50) (HIV-1 clinical isolates [8]; HIV-1 BR/93/022 in PBMCs): >49.8
- TI (TC50/IC50) (HIV-1 clinical isolates [8]; HIV-1 CMU 02 in PBMCs): >44.1
- TI (TC50/IC50) (HIV-1 clinical isolates [8]; HIV-1 JV 1083 in PBMCs): >71.4
- TI (TC50/IC50) (HIV-1 clinical isolates [8]; HIV-1 RW/92/016 in PBMCs): >74.6
- TI (TC50/IC50) (HIV-1 clinical isolates [8]; HIV-1 UG/92/046 in PBMCs): >36.1
- TI (TC50/IC50) (HIV-2 CDC 310319 [9]): >62.1
- CC50 (human PBMCs [10]; MDR 807 assay): > 1000 nM
- CC50 (human PBMCs [10]; MDR 1385 assay): > 1000 nM
- CC50 (human PBMCs [10]; MDR 3761 assay): > 1000 nM
- CC50 (in vitro): > 1000 nM
- CC50 at 7 days (in vitro): > 1000 nM
- TI (TC50/IC50) ([11]; HIV-1 ADA in macrophages): >221.2
- TI (TC50/IC50) ([11]; HIV-1 Ba-L in macrophages): >275.5
